Assays:
Rattus norvegicus [1] = assay: Anti-inflammatory activity against formalin-induced foot paw edema in PO dosed rat at 10 mg/kg assessed as reduction in volume of edema measured after 5 hr relative to control; format: functional; parameters: scale not given: the % may be the effect or the level left
[2] = Selectivity index, ratio of IC50 for ovine COX1 to IC50 for recombinant human COX2
Rattus norvegicus [3] = assay: Anti-ulcerative activity in aspirin induced Wistar rat ulcer model assessed as inhibition of ulcer index at 20 mg/kg,po; format: functional
Rattus norvegicus [4] = assay: Analgesic activity in Carrageenan- induced paw edema in PO dosed Swiss albino rat assessed as protection of hind paw measured after 2 hrs at 20 mg/kg relative to control; format: functional
RAW264.7 [5] = assay: Anti-inflammatory activity in mouse RAW264.7 cells assessed as inhibition of LPS-induced IL-6 production preincubated for 1 hr followed by LPS addition and measured after 24 hrs by EIA relative to control; format: functional; parameters: scale not given: the % may be the effect or the level left
RAW264.7 [6] = assay: Anti-inflammatory activity in mouse RAW264.7 cells assessed as inhibition of LPS-induced TNFalpha production relative to control; format: functional; parameters: scale not given: the % may be the effect or the level left
RAW264.7 [7] = assay: Anti-inflammatory activity in mouse RAW264.7 cells assessed as inhibition of LPS-induced TNFalpha production measured after 24 hrs by EIA method relative to control; format: functional; parameters: scale not given: the % may be the effect or the level left
Rattus norvegicus [8] = assay: Anti-inflammatory activity in Carrageenan-induced-Wistar albino rat model assessed as reduction in volume of paw edema measured after 4 hrs; format: functional
Mus musculus [9] = assay: Anti-inflammatory activity in Swiss albino mouse of Carrageenan-induced pleurisy assessed as reduction in migration of leukocytes at 100 mg/kg, po relative to control; format: functional; parameters: scale not given: the % may be the effect or the level left
Mus musculus [10] = assay: Anti-inflammatory activity in Swiss albino mouse of Carrageenan-induced paw edema assessed as reduction in paw edema at 100 mg/kg measured after 2 hr (reference value: 140 +/- 6.3 uL); format: functional
Mus musculus [11] = assay: Anti-inflammatory activity in Swiss albino mouse of Carrageenan-induced paw edema assessed as reduction in paw edema at 100 mg/kg measured after 4 hr (reference value: 126.7 +/- 6.9 uL); format: functional
Mus musculus [12] = assay: Anti-inflammatory activity in Swiss albino mouse of Carrageenan-induced paw edema assessed as reduction in inflammation at 100 mg/kg measured after 1 hr relative to control; format: functional; parameters: scale not given: the % may be the effect or the level left
Mus musculus [13] = assay: Anti-inflammatory activity in Swiss albino mouse of Carrageenan-induced paw edema assessed as reduction in inflammation at 100 mg/kg measured after 2 hr relative to control; format: functional; parameters: scale not given: the % may be the effect or the level left
Mus musculus [14] = assay: Anti-inflammatory activity in Swiss albino mouse of Carrageenan-induced paw edema assessed as reduction in inflammation at 100 mg/kg measured after 4 hr relative to control; format: functional; parameters: scale not given: the % may be the effect or the level left
Mus musculus [15] = assay: Anti-inflammatory activity in Swiss albino mouse of Carrageenan-induced paw edema assessed as reduction in paw edema at 100 mg/kg measured after 1 hr (reference value: 142.5 +/- 5.6 uL); format: functional
Mus musculus [16] = assay: Anti-inflammatory activity in Swiss albino mouse of Carrageenan-induced paw edema assessed as reduction in paw edema at 100 mg/kg measured after 3 hr (reference value: 130 +/- 3.8 uL); format: functional
Mus musculus [17] = assay: Anti-inflammatory activity in Swiss albino mouse of Carrageenan-induced paw edema assessed as reduction in inflammation at 100 mg/kg measured after 3 hr relative to control; format: functional; parameters: scale not given: the % may be the effect or the level left
Mus musculus [18] = assay: Anti-inflammatory activity in Swiss albino mouse of Carrageenan-induced pleurisy assessed as reduction in migration of leukocytes at 100 mg/kg, po (reference value: 5.2 +/- 0.34); format: functional
Mus musculus [19] = assay: Anti-inflammatory activity in Swiss albino mouse of Carrageenan-induced pleurisy assessed as reduction in TNFalpha levels at 100 mg/kg, po; format: functional
Mus musculus [20] = assay: Anti-inflammatory activity in Swiss albino mouse of Carrageenan-induced pleurisy assessed as reduction in total leukocytes at 50 mg/kg, po relative to control; format: functional; parameters: scale not given: the % may be the effect or the level left
RAW264.7 [21] = assay: Anti-inflammatory activity in mouse RAW264.7 cells assessed as inhibition of LPS-induced IL-6 production measured after 24 hrs by EIA method; format: functional, cell-based; conditions: RAW264.7, 24 h
RAW264.7 [22] = assay: Anti-inflammatory activity in mouse RAW264.7 cells assessed as inhibition of LPS-induced NO production; format: functional, cell-based
RAW264.7 [23] = assay: Anti-inflammatory activity in mouse RAW264.7 cells assessed as inhibition of LPS-induced TNFalpha production measured after 24 hrs by EIA method; format: functional, cell-based; conditions: RAW264.7, 24 h
Mus musculus [24] = assay: Analgesic activity in PO dosed Swiss albino mouse assessed as protection of paw edema measured after 2 hrs at 20 mg/kg relative to control; format: functional
Rattus norvegicus [25] = assay: Anti-ulcerative activity in Carrageenan-induced paw edema Swiss albino rat ulcer model assessed as inhibition of ulcer index at 10 mg/kg,po; format: functional
Rattus norvegicus [26] = species on record: Rattus norvegicus; assay: Antinociceptive activity in Wistar rat assessed as hot-plate change in latency by hot plate test method relative to control; format: organism-based; conditions: in vivo
Rattus norvegicus [27] = assay: Anti-inflammatory activity against formalin-induced foot paw edema in PO dosed rat at 10 mg/kg assessed as inhibition of edema measured after 1 hr relative to control; format: functional; parameters: scale not given: the % may be the effect or the level left

In the case of `CS(=O)(=O)c1ccc(-n2cc(/C=C3\NC(=S)N(c4ccccc4)C3=O)c(-c3ccccc3)n2)cc1`, the Activity (Rattus norvegicus [1]) is reported as 56%, the Selectivity Index [2] is reported as 9.15 and the UI (Rattus norvegicus [3]) is reported as 3.87.
With `CC1=NN(c2ccc(F)cc2)C(=O)/C1=N\Nc1ccc(-c2nc3ccccc3[nH]2)cc1` the Activity (Rattus norvegicus [4]) was 65%.
`O=c1[nH]c(CCl)nc2sc3c(c12)CCCC3` showed an Activity (RAW264.7 [5]) of 90% and an Activity (RAW264.7 [6]) of 10%.
For `COc1cc(OC)c2c(c1)OCC/C(=C\Cc1ccccn1)C2=O`, the Activity (RAW264.7 [7]) was 92.5%.
`Cc1nn(-c2ccccc2)c2c1C(c1ccccc1[N+](=O)[O-])C(C#N)=C(/N=C/c1ccccc1)O2` (configuration not stated) showed an ED50 (Rattus norvegicus [8]) of 858 µmol/kg.
With `CN1CCN(C(=O)c2cnn(-c3ccccc3)c2)CC1` the Activity (Mus musculus [9]) was 36.5%, the Activity (Mus musculus [10]) was 88.6 µL and the Activity (Mus musculus [11]) was 77.1 µL. It also gave an Activity (Mus musculus [12]) of 19%, an Activity (Mus musculus [13]) of 37% and an Activity (Mus musculus [14]) of 39%. The Activity (Mus musculus [15]) was 115.7 µL, the Activity (Mus musculus [16]) was 85.7 µL and the Activity (Mus musculus [17]) was 34%. For the same compound, the Activity (Mus musculus [18]) was 3.3, the Activity (Mus musculus [19]) was 2.6 and the Activity (Mus musculus [20]) was 34.5%.
Work on `CCCCc1nn(C)c2c(NCCCN3CCOCC3)nc(/C=C/c3cc(OC)c(OC)c(OC)c3)nc12` yielded an IC50 (RAW264.7 [21]) of 2640 nM, an IC50 (RAW264.7 [22]) of 5.63 µM and an IC50 (RAW264.7 [23]) of 4.38 µM.
For `CC1=NN(c2ccc(Cl)cc2)C(=O)/C1=N\Nc1ccc(-c2nc3ccccc3[nH]2)cc1`, the Activity (Mus musculus [24]) was 67% and the UI (Rattus norvegicus [25]) was 0.53.
Compound `CCOC(=O)c1c(SC)nn(C(=O)CSc2nnc(CCCOc3ccc(C)cc3C(=O)c3ccc(F)cc3)o2)c1N` has an Activity (Rattus norvegicus [26]) of 92.3% and an Activity (Rattus norvegicus [27]) of 52.17%.

Source: ChEMBL document CHEMBL5233249, “Recent advancements in the development of heterocyclic anti-inflammatory agents” (Eur J Med Chem, 2020)
